In patent publication US11149047B2, “Aryl imidazoles for treatment of cancer” (Aptose Biosciences Inc., priority 2017, dated 2021):

Legend:
[1] = system: γH2AX foci in CAOV3 cells; experiment: Immunofluorescence staining of γH2AX foci; format: cell-based, human; details: CAOV3, time course, FIG. 2C
Protocol: Cells were harvested and washed with PBS twice, fixed in Z-fix solution (buffered zinc formalin fixatives, Anatech, Inc, Creek, Mich.) and permeabilized and blocked with 0.3% Triton X-100 in PBS containing 5% bovine serum albumin. The cells were then incubated with γ-H2AX antibody (1:250 dilution in 0.3% Triton X-100 in PBS containing 1% bovine serum albumin) overnight followed by three washes. Cells were incubated for 1 h with fluorescent-conjugated secondary antibodies (1:1000 dilution) followed by three washes. Slides were mounted with ProLong Gold antifade reagent with 4′,6-diamidino-2-phenylindole (DAPI) to stain cell nuclei (Molecular Probes). Fluorescence was viewed with Keyence Fluorescent Microscope using a 100× objective and quantitated with Image J software (the National Institutes of Health).
The structure of COMPOUND I is similar to drugs that bind to quadruplex structures in DNA which results in strand breaks; this led to the investigation of whether COMPOUND I caused damage to DNA. The parental Raji cells were treated with 0.5 μM COMPOUND I for increasing periods of time and induction of DNA damage was assessed by accumulation of the phosphorylated forms of ATM and γH2AX measured by Western blot analysis. […]

[2] = system: BIK, BAD, MCL-1 in Raji/COMPOUND IR cells; experiment: Western blot of proteins involved in apoptosis; format: cell-based, human
Text: In order to delineate which effects of COMPOUND I are most closely linked to sensitivity for this drug, a subline of the Raji Burkitt's lymphoma cell line that had acquired resistance (Raji/COMPOUND IR) as a result of repeated exposure to progressively higher concentrations of COMPOUND I over a period of 6 months was developed. Resistance evolved slowly and progressively without an abrupt change at any point during the selection process. […] This is in the same range as has been reported for freshly isolated AML blasts and CLL cells. Zhang et al., “Inhibition of c-Myc by ATPO-COMPOUND I as an Innovative Therapeutic Approach to Induce Cell Cycle Arrest and Apoptosis in Acute Myeloid Leukemia [abstract],” Blood 2016; 128:1716; Kurtz et al., “Broad Activity of COMPOUND I in AML and other Hematologic Malignancies Correlates with KFL4 Expression Level [abstract],” Blood 2015; 126:1358, both of which are hereby incorporated by reference. […] The level of resistance remained stable for at least 3 months during culture in drug-free media (FIG. 4A). Raji/COMPOUND IR cells grew slightly faster than the parental cells but the difference was not statistically significant.

[3] = system: TP53, phos-CHEK1, γH2AX, MAPK14, MAPK8 in MV4-11 cells; experiment: Western blot of DNA damage and cell stress pathways; format: cell-based; details: 500 nmol/L
Protocol: Cells were treated as described above. Whole-cell lysates were prepared, separated by SDS-PAGE, and transferred to nitrocellulose membranes. Densitometry was performed using ImageJ or Image Studio Lite Version5.2 software and normalized to the density of GAPDH.
The increase in total protein was concomitant with an increase in phospho-Ser15 and acetyl-K382 (FIG. 12B). TP53 is phosphorylated at Ser15 and Ser20 in response to DNA damage, which reduces MDM2 binding and proteasomal degradation of p53. Furthermore, p53 is acetylated in response to cellular stress, and this modification can further stabilize TP53 protein levels and modulate binding activity. Activation of TP53 can trigger apoptosis through upregulation of proapoptotic factors such as BBC3 (PUMA), PMAIP1 (NOXA), and BAX. […] A concentration-dependent increase in ? H2AX was detected in all AML lines tested, thereby adding further credence to the concept that COMPOUND I triggers the DDR pathway (FIG. 12D).

KG-1 AML cells = experiment: Uptake and efflux assay by mass spectrometry; format: in vitro ADME; details: exposed 1 or 6 hours, then drug-free media
Protocol: Cells exposed to COMPOUND I were homogenized in acetonitrile containing 5 ng of deuterated COMPOUND I standard. Samples were analyzed at the UCSD Molecular Mass Spectrometry Facility employing an Agilent 1260 liquid chromatograph (LC) system coupled with a Thermo LCQdeca mass spectrometer using positive ion mode electrospray ionization as the ion source.
Measurement of the kinetics of uptake and efflux of COMPOUND I in KG-1 AML cells determined by mass spectrometry indicated a gradual approach to steady state and a rapid initial efflux, but a very prolonged terminal efflux (FIGS. 20A and 20B). When KG-1 cells were exposed to COMPOUND I for either 1 or 6 hours and then placed in drug-free media, the efflux pattern consisted of a rapid phase occurring during the first 30 minutes followed by a prolonged terminal phase, such that significant amounts of COMPOUND I were retained in KG-1 cells for longer than 24 hours. […] (FIGS. 20C and 20D).

[4] = system: MV4-11, EOL1, or KG-1 cells; experiment: Detection of reactive oxygen species (molecular sensors, GSH changes); format: cell-based
Text: In addition, cells harboring BRCA1/2 mutations are hypersensitive to COMPOUND I, further supporting a role for DNA damage in COMPOUND I mechanism of action. COMPOUND I consistently produced upregulation of CDKN1A, which mediates arrest in G0-G1. In addition, CDKN1A can be induced after DNA double-strand breaks to block cell-cycle progression to allow for sufficient time to repair DNA. In combination with CDKN1A induction, COMPOUND I increased KLF4 gene expression in many AML cell lines, which is known to regulate CDKN1A as part of the G1 cell-cycle checkpoint. […] The role of KLF4 in COMPOUND I mechanism of action is of interest for future studies.

Cc1[nH]c2ccc(F)cc2c1-c1nc2c3cccnc3c3ncccc3c2[nH]1 [COMPOUND I, 2-(5-fluoro-2-methyl-1H-indol-3-yl)-1H-imidazo[4,5-f][1,10]phenanthroline]
number of γH2AX foci [1]: increase in the number of foci was detectable at 1 h
changes in BIK, BAD, MCL-1 ([2]; 0.5 μM, 24 h): None of these changes were detected
induction of apoptosis ([2]; concentration that induced apoptosis in Raji sensitive cells): failed to trigger apoptosis
time at which an increase in phos-CHEK1 was detected [3]: 1 h
time of phos-CHEK1 peak [3]: approximately 4 hours
MAPK14 and MAPK8 phosphorylation ([3]; 4- to 6-hour treatment): increase in both MAPK14 phos-T180 and MAPK8 phos-Thr183/pTyr185
DDR marker γH2AX ([3]; by 6 hours): robust increase
TP53 levels ([3]; 1, 3, and 6 hours): significant increase in TP53 levels
duration of rapid efflux phase (KG-1 AML cells): 30 min
retention of significant amounts in cells (KG-1 AML cells): > 24 h
generation of reactive oxygen species [4]: no such species have been detected
